Data from US20140343128A1, “Combination of a phosphoinositide 3-kinase inhibitor and a modulator of the Janus Kinase 2 - Signal Transducer and Activator of Transcription 5 pathway” (NOVARTIS FORSCHUNGSSTIFTUNG, ZWEIGNIEDERLASSUNG FRIEDRICH …, priority 2011, published 2014).

Columns and labels:
pJAK2, pSTAT5, pSTAT3 = test: Time-course immunoblots/ELISA of JAK2/STAT crosstalk in breast cancer lines in vitro; type: cell-based, human, mouse; details: for Start of JAK2 activation (pJAK2/pSTAT5 upregulation) after adding the compound: single PI3K or mTOR inhibition, in vitro time course; for pJAK2 and pSTAT5 (JAK2/STAT5 activation) in vitro: after 4 hours-8 hours of treatment
[1] = test system: MDA231 LM2 and 4T-1 tumors; test: Lung metastasis (metastatic index) in tumor-bearing mice; type: in vivo; details: mice bearing MDA231 LM2 shJAK2 or shNT tumors treated with BSK
From the text: (§1) Animal experiments. SCID/beige, SCID/NOD and Balb/c mice (Jackson Labs) were maintained under specific pathogen-free conditions and were used in compliance with protocols approved by the Institutional Animal Care and Use Committees of the FMI, which conform to institutional and national regulatory standards on experimental animal usage. For orthotopical engraftment of breast cancer cell lines, 1×10^6 MDA-MB-468, 1×10^6 MDA-MB-231-LM2 and 0.5×10^6 […] or 4T-1-GFP cells were suspended in a 100-μl mixture of Basement Membrane Matrix Phenol Red-free (BD Biosciences) and PBS 1:1 and injected into the mammary gland 4 or between mammary glands 2 and 3. Primary patient breast tumors were cut into 1 mm×1 mm pieces and transplanted into mammary gland 4. […] Tumors were measured every 3 to 4 days with vernier calipers, and tumor volumes were calculated by the formula 0.5×(larger diameter)×(smaller diameter)^2. End point tumor sizes were analyzed for synergism using the formula AB/C<A/C×B/C, where C=tumor volume VHC, A=tumor volume compound 1, B=tumor volume compound 2, AB=tumor volume combination (Clarke, 1997).
Immunohistochemistry. […] Mouse lungs were fixed in Bouin's fixative and visible metastatic lung nodules were counted using a binocular.

IL-8 = IL-8 levels in tumors and plasma of treated mice; type: in vivo; details: mice treated as in FIG. 5
From the text: as §1, with “4. Tumor-bearing mice were randomized based on tumor volume prior to the initiation of treatment, which was initiated when average tumor volume was at least 100 mm^3.” for “4.”

pJAK2, pSTAT5 = test: pJAK2/pSTAT5 in xenografts of treated mice; design: species or system SCID/beige mice; details: 30 mg/kg once, after 8 hours of treatment
From the text: as §1, with “4. Tumor-bearing mice were randomized based on tumor volume prior to the initiation of treatment, which was initiated when average tumor volume was at least 100 mm^3.” for “4.”

pSTAT5/STAT5 [2] = test: pSTAT5/STAT5 immunoblotting with densitometry in BEZ-treated human breast cancer cell lines; type: cell-based; details: 300 nM BEZ, 8 h, relative to DMSO
pJAK2/JAK2 [3] = test: pJAK2/JAK2 ELISA in BEZ-treated human breast cancer cell lines; type: cell-based; details: 300 nM BEZ, 8 h, relative to DMSO
pAKT, pS6 = test: Time-course immunoblots of target inhibition (pAKT, pS6) in breast cancer lines; type: cell-based, human, mouse; details: MDA 468, MDA 231 LM2 and 4T-1 lines; single dose; up to 20 hours after treatment
[4] = test system: JAK2/STAT5 and IL-8 secretion; test: JAK2/STAT5 and IL-8 in primary human triple-negative breast tumor xenografts; type: in vivo, human tumors in immunodeficient mice; details: 30 mg/kg BEZ, 3-4 days, xenografts in immunodeficient mice
From the text: as §1, with “4. Tumor-bearing mice were randomized based on tumor volume prior to the initiation of treatment, which was initiated when average tumor volume was at least 100 mm^3.” for “4.”

IL-8 secretion = IL-8 secretion ELISA in BEZ-treated breast cancer cell lines; type: cell-based, human; details: 300 nM BEZ; for IL8 BEZ vs. DMSO: 20 h, relative to DMSO
pSTAT5/STAT5 [5] = test: pSTAT5/STAT5 immunoblotting with densitometry in BEZ-treated Balb/c mouse breast cancer lines; type: cell-based; details: 300 nM BEZ, 8 h, relative to DMSO
pJAK2/JAK2 [6] = test: pJAK2/JAK2 ELISA in BEZ-treated Balb/c mouse breast cancer lines; type: cell-based; details: 300 nM BEZ, 8 h, relative to DMSO

## Nc1cc(C(F)(F)F)c(-c2cc(N3CCOCC3)nc(N3CCOCC3)n2)cn1 [COMPOUND C, 5-(2,6-di-morpholin-4-yl-pyrimidin-4-yl)-4-trifluoromethyl-pyridin-2-ylamine]
pJAK2, pSTAT5, pSTAT3
  Start of JAK2 activation (pJAK2/pSTAT5 upregulation) after adding the compound: 8 hours

## Fc1cc(-c2cccc3ncc(-c4cnn(C5CCNCC5)c4)nc23)cc(F)c1CN1CCOCC1 [COMPOUND D, 8-(3,5-Difluoro-4-morpholin-4-ylmethyl-phenyl)-2-(1-piperidin-4-yl-1H-pyrazol-4-yl)-quinoxaline]
[1]
  Metastasis (metastatic index), BSK alone: reduces
IL-8
  IL-8 secretion in vivo (tumors and plasma): reduced
pJAK2, pSTAT5, pSTAT3; JAK2 inhibition added to BEZ treatment, MDA 468 cells, 8 h BEZ
  Upregulation of pSTAT5 by BEZ: counteracted

## CO[C@H]1C[C@@H]2CC[C@@H](C)[C@@](O)(O2)C(=O)C(=O)N2CCCC[C@H]2C(=O)O[C@H]([C@H](C)C[C@@H]2CC[C@@H](OCCO)[C@H](OC)C2)CC(=O)[C@H](C)/C=C(\C)[C@@H](O)[C@@H](OC)C(=O)[C@H](C)C[C@H](C)/C=C/C=C/C=C/1C [RAD001, everolimus, reference compound]
pJAK2, pSTAT5, pSTAT3
  Start of JAK2 activation (pJAK2/pSTAT5 upregulation) after adding the compound: 4 hours

## Cn1c(=O)n(-c2ccc(C(C)(C)C#N)cc2)c2c3cc(-c4cnc5ccccc5c4)ccc3ncc21 [COMPOUND A, 2-methyl-2-[4-(3-methyl-2-oxo-8-quinolin-3-yl-2,3-dihydro-imidazo[4,5-c]quinolin-1-yl)-phenyl]-propionitrile]
pJAK2, pSTAT5
  pJAK2 and pSTAT5 (JAK2/STAT5 activation) in vivo: activates
pJAK2, pSTAT5; listed as BEZ
  pJAK2 and pSTAT5 (JAK2/STAT5 activation) in vivo: considerable upregulation
pSTAT5/STAT5 [2]; BT474 cells
  pSTAT5/STAT5 BEZ vs. DMSO: 1.02
pSTAT5/STAT5 [2]; BT549 cells
  pSTAT5/STAT5 BEZ vs. DMSO: 1.61
pSTAT5/STAT5 [2]; HCC1937 cells
  pSTAT5/STAT5 BEZ vs. DMSO: 1.66
pSTAT5/STAT5 [2]; HCC1954 cells
  pSTAT5/STAT5 BEZ vs. DMSO: 1.05
pSTAT5/STAT5 [2]; Hs578t cells
  pSTAT5/STAT5 BEZ vs. DMSO: 0.96
pSTAT5/STAT5 [2]; MCF7 cells
  pSTAT5/STAT5 BEZ vs. DMSO: 0.92
pSTAT5/STAT5 [2]; MCF10A cells
  pSTAT5/STAT5 BEZ vs. DMSO: 3.21
pSTAT5/STAT5 [2]; MDA 231 LM2 cells
  pSTAT5/STAT5 BEZ vs. DMSO: 2.32
pSTAT5/STAT5 [2]; MDA 231 cells
  pSTAT5/STAT5 BEZ vs. DMSO: 1.58
pSTAT5/STAT5 [2]; MDA 436 cells
  pSTAT5/STAT5 BEZ vs. DMSO: 1.77
pSTAT5/STAT5 [2]; MDA 468 cells
  pSTAT5/STAT5 BEZ vs. DMSO: 2.11
pSTAT5/STAT5 [2]; SKBR3 cells
  pSTAT5/STAT5 BEZ vs. DMSO: 0.82
pSTAT5/STAT5 [2]; SUM159 cells
  pSTAT5/STAT5 BEZ vs. DMSO: 1.09
pSTAT5/STAT5 [2]; T47D cells
  pSTAT5/STAT5 BEZ vs. DMSO: 0.62
pSTAT5/STAT5 [2]; ZR75-1 cells
  pSTAT5/STAT5 BEZ vs. DMSO: 1.62
pJAK2/JAK2 [3]; BT474 cells
  pJAK2/JAK2 BEZ vs. DMSO: 0.95
pJAK2/JAK2 [3]; BT549 cells
  pJAK2/JAK2 BEZ vs. DMSO: 1.21
pJAK2/JAK2 [3]; HCC1937 cells
  pJAK2/JAK2 BEZ vs. DMSO: 1.62
pJAK2/JAK2 [3]; HCC1954 cells
  pJAK2/JAK2 BEZ vs. DMSO: 1.32
pJAK2/JAK2 [3]; Hs578t cells
  pJAK2/JAK2 BEZ vs. DMSO: 1.18
pJAK2/JAK2 [3]; MCF7 cells
  pJAK2/JAK2 BEZ vs. DMSO: 0.74
pJAK2/JAK2 [3]; MCF10A cells
  pJAK2/JAK2 BEZ vs. DMSO: 2.11
pJAK2/JAK2 [3]; MDA 231 LM2 cells
  pJAK2/JAK2 BEZ vs. DMSO: 2.18
pJAK2/JAK2 [3]; MDA 231 cells
  pJAK2/JAK2 BEZ vs. DMSO: 1.25
pJAK2/JAK2 [3]; MDA415 cells
  pJAK2/JAK2 BEZ vs. DMSO: 0.88
pJAK2/JAK2 [3]; MDA 436 cells
  pJAK2/JAK2 BEZ vs. DMSO: 1.53
pJAK2/JAK2 [3]; MDA 468 cells
  pJAK2/JAK2 BEZ vs. DMSO: 2.32
pJAK2/JAK2 [3]; SKBR3 cells
  pJAK2/JAK2 BEZ vs. DMSO: 0.65
pJAK2/JAK2 [3]; SUM159 cells
  pJAK2/JAK2 BEZ vs. DMSO: 0.92
pJAK2/JAK2 [3]; T47D cells
  pJAK2/JAK2 BEZ vs. DMSO: 1.05
pJAK2/JAK2 [3]; ZR75-1 cells
  pJAK2/JAK2 BEZ vs. DMSO: 1.36
pAKT, pS6
  pAKT levels: reduced
  pS6 levels: completely blocked
[4]
  JAK2/STAT5 and IL-8 secretion in human primary triple-negative breast tumors: activates
IL-8 secretion; breast cancer cells
  IL-8 secretion in breast cancer: induces
IL-8 secretion; BT474 cells
  IL8 BEZ vs. DMSO: 0.99
IL-8 secretion; BT549 cells
  IL8 BEZ vs. DMSO: 1.42
IL-8 secretion; HCC1937 cells
  IL8 BEZ vs. DMSO: 1.06
IL-8 secretion; HCC1954 cells
  IL8 BEZ vs. DMSO: 1.22
IL-8 secretion; Hs578t cells
  IL8 BEZ vs. DMSO: 1.08
IL-8 secretion; MCF7 cells
  IL8 BEZ vs. DMSO: 0.81
IL-8 secretion; MCF10A cells
  IL8 BEZ vs. DMSO: 1.23
IL-8 secretion; MDA 231 LM2 cells
  IL8 BEZ vs. DMSO: 2.04
IL-8 secretion; MDA 231 cells
  IL8 BEZ vs. DMSO: 1.41
IL-8 secretion; MDA415 cells
  IL8 BEZ vs. DMSO: 0.91
IL-8 secretion; MDA 436 cells
  IL8 BEZ vs. DMSO: 1.41
IL-8 secretion; MDA 468 cells
  IL8 BEZ vs. DMSO: 1.91
IL-8 secretion; SKBR3 cells
  IL8 BEZ vs. DMSO: 1.01
IL-8 secretion; SUM159 cells
  IL8 BEZ vs. DMSO: 1.24
IL-8 secretion; T47D cells
  IL8 BEZ vs. DMSO: 0.71
IL-8 secretion; ZR75-1 cells
  IL8 BEZ vs. DMSO: 1.55
IL-8
  IL-8 secretion in vivo (tumors and plasma): enhanced
pJAK2, pSTAT5, pSTAT3; 300 nM BEZ
  Pattern of JAK2/STAT5 activation: biphasic activation
pJAK2, pSTAT5, pSTAT3; BEZ treatment
  Levels of pSTAT3: largely unaffected
pJAK2, pSTAT5, pSTAT3
  pJAK2 and pSTAT5 (JAK2/STAT5 activation) in vitro: activates
pJAK2, pSTAT5, pSTAT3; listed as BEZ
  pJAK2 and pSTAT5 (JAK2/STAT5 activation) in vitro: considerable upregulation
pSTAT5/STAT5 [5]; 4T-1 cells
  pSTAT5/STAT5 BEZ vs. DMSO: 2.65
pSTAT5/STAT5 [5]; 168FARN cells
  pSTAT5/STAT5 BEZ vs. DMSO: 1.9
pJAK2/JAK2 [6]; 4T-1 cells
  pJAK2/JAK2 BEZ vs. DMSO: 2.02
pJAK2/JAK2 [6]; 168FARN cells
  pJAK2/JAK2 BEZ vs. DMSO: 1.74
